# Measurements reported in patent US9259411B2, “Neuronal circuit-dependent neuroprotection by interaction between nicotinic receptors” (priority 2006, dated 2016).
# Legend:
# [1] = test system: CA1 neurons of hippocampal slices; assay: Neuroprotection against NMDA excitotoxicity: recovery of population spikes in acute hippocampal slices; format: cell-based, rat; details: for effect of nifedipine on the neuroprotection: 10 μM nifedipine; for effect of PD98059 on the neuroprotection: 50 μM PD98059; for Effect on the neuroprotection caused by the substance: 10 μM PD98059: main target ERK-1,2 kinase
# Method: Male Sprague-Dawley rats (120-200 g) were maintained and sacrificed according to standard procedures reviewed and approved by the Institutional Animal Care and Use Committee. […] Briefly, hippocampi were dissected over ice; transversal 400-μm-thick slices were cut with a manual slicer and immediately transferred to the incubation chamber, thus preserving the neurons in their native environment. The chamber consisted of a temperature-controlled bath surrounding an acrylic plate covered with nylon mesh; the plate was divided into three lanes with independent perfusion. […] C. A bipolar electrode placed in the stratum radiatum was used to stimulate the Shaffer collateral incoming fibers with a constant current for 0.2 msec. The resulting population spike (PS) was recorded in stratum pyramidale with a glass electrode filled with 2 M NaCl, having an impedance of 1-5 M.OMEGA.
# About 30 slices from the hippocampi of two rats were distributed equally among three lanes of an incubation chamber. A maximum of seven slices were analyzed per lane for each individual experiment, and on average 21 slices per condition were tested for each experimental condition. […] Because the neurons are maintained in their native environment and in contact with other cells, stimulation with the appropriate stimulus can elicit a PS. One hour after dissection, each slice was stimulated with a stimulus twice the strength required to elicit a threshold PS. This initial response was recorded as PS area (msec×mV) and compared to the final response elicited by the same stimulus strength recorded from the same position after the experimental treatment was finished. The slices were washed for 1 hr with normal ACSF to eliminate lingering drugs and any short-lived effects. […] The percentage of the initial response remaining at the end of the experiment was used as a measure of electrophysiological recovery.
# The areas of PSs (mV/msec) were acquired and analyzed with the Labman program. The data were statistically analyzed with SigmaStat v2.03 (SPSS, Chicago, Ill.). One-way analysis of variance (ANOVA) was used whenever the data were distributed normally. […] In these cases, the less powerful nonparametric Kruskal-Wallis one-way ANOVA on ranks was used. The post-hoc test used was the Student-Newman-Keuls test for normally distributed data and Dunn's test for data that was not normally distributed.
# α7 nAChRs = α7 nAChRs (Rattus norvegicus, UniProt Q05941); details: against the α7 nAChRs; cited from earlier work
# NMDA receptors = details: against the NMDA receptors; cited from earlier work
# Akt Ser473 = assay: Western blot of phosphorylated Akt in CA1 of hippocampal slices; format: cell-based, rat; details: 1 μM DHβE alone, 20 min
# Method: For immunoassays of phosphorylated proteins, in the initial experiments slices were incubated in the same conditions as for PS determination. Later, the slices were incubated by being submerged in a static chamber on culture insets (Millicell; Millipore, Billerica, Mass.) to avoid drying during timed removal of slices.
# Slices were prepared and maintained as described above. Treatments started after 2 hr of incubation in ACSF. […] At the corresponding time, each slice was removed and the CA1 region microdissected, frozen on dry ice, and stored at −80° C. until assayed. […] Final detection was carried out with enhance chemiluminescence methodology (Pierce Supersignal West Dura) and the intensity of the signal measured in a gel documentation system (Versa Doc Model 1000; Bio-Rad). […] Normalization of the signal of the phosphokinase to the total amount of proteins, measured by densitometry of the stained membrane, was used as the relevant parameter, which was the level of activity of the kinase. This method was validated with several isolated cells and tissues and determined a linear relationship between the amount of total protein (as measured by densitometry) and total kinases (as measured by chemiluminescence) within the range of proteins employed in these experiments (4-12 μg total protein). […]
# α7 = α7 (Homo sapiens, UniProt P36544); details: cited from earlier work
# α3β4 = α3β4 (Homo sapiens, UniProt P30926+P32297); details: cited from earlier work
# [2] = test system: CA1 neurons of hippocampal slices; details: cited from earlier work; for effect of DHβE on the neuroprotection (reported): 1 μM DHβE, 10 nM MLA
# α4β2 nAChRs = α4β2 nAChRs (Homo sapiens, UniProt P17787+P43681); details: inhibits the function of α4β2 nAChRs; cited from earlier work
# α3β4 nAChRs = α3β4 nAChRs (Homo sapiens, UniProt P30926+P32297); details: inhibits the function of α3β4 nAChRs; cited from earlier work
# Chain of α3β4 nAChRs (P32297 32-505): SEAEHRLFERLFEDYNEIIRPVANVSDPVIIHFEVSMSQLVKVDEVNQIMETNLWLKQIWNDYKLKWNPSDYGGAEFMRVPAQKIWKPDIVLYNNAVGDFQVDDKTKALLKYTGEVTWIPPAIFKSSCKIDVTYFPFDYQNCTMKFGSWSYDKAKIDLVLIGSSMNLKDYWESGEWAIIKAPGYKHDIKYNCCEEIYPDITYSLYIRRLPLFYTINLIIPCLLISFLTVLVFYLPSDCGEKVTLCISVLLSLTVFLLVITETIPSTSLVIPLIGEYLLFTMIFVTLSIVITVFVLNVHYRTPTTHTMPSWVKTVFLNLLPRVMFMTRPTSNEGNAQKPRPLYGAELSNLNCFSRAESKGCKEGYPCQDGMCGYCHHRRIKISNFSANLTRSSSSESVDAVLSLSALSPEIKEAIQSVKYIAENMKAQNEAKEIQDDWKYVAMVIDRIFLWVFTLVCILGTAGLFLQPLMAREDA
# Chain of α3β4 nAChRs (P30926 22-498): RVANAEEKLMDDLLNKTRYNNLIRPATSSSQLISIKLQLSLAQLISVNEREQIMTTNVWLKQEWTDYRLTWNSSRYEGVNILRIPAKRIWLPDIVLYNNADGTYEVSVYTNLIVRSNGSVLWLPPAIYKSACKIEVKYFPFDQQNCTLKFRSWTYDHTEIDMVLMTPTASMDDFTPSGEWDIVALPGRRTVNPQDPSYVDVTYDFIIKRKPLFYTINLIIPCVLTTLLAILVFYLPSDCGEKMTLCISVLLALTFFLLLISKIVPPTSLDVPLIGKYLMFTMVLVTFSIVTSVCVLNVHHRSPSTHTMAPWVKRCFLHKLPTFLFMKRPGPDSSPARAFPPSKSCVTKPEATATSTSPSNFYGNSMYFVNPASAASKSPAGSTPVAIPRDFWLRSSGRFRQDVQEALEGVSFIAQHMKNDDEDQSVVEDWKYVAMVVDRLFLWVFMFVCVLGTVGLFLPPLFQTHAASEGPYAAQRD
# Chain of α7 (P36544 23-502): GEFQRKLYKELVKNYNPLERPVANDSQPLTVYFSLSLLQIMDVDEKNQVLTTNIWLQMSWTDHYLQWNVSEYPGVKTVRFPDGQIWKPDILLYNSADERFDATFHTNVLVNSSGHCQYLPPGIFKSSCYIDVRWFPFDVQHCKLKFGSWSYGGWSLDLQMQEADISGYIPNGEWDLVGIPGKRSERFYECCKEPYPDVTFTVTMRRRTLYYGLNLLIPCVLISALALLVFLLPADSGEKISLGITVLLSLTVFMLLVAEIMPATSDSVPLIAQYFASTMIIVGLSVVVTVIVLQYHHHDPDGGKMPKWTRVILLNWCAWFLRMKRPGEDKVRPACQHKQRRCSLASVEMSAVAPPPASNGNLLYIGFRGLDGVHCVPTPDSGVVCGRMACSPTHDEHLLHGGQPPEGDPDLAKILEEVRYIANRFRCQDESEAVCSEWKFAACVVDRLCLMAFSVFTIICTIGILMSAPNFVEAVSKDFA
# Chain of α7 nAChRs (Q05941 23-502): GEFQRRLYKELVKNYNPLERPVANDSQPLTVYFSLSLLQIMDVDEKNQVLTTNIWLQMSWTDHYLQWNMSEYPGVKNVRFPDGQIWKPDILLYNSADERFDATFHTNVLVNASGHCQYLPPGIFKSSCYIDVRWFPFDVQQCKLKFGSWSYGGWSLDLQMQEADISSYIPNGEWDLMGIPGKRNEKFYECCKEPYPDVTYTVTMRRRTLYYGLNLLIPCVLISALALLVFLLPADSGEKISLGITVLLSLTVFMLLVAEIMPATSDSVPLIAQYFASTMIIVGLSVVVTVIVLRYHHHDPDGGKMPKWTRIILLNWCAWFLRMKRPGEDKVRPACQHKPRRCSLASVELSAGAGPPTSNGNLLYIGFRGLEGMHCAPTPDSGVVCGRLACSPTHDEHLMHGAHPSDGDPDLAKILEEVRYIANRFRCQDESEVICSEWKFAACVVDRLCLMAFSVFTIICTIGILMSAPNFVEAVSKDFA
# Chain of α3β4 (P32297 32-505): as the sequence (P32297 32-505) above
# Chain of α3β4 (P30926 22-498): as the sequence (P30926 22-498) above
# Chain of α4β2 nAChRs (P43681 29-627 limits assumed): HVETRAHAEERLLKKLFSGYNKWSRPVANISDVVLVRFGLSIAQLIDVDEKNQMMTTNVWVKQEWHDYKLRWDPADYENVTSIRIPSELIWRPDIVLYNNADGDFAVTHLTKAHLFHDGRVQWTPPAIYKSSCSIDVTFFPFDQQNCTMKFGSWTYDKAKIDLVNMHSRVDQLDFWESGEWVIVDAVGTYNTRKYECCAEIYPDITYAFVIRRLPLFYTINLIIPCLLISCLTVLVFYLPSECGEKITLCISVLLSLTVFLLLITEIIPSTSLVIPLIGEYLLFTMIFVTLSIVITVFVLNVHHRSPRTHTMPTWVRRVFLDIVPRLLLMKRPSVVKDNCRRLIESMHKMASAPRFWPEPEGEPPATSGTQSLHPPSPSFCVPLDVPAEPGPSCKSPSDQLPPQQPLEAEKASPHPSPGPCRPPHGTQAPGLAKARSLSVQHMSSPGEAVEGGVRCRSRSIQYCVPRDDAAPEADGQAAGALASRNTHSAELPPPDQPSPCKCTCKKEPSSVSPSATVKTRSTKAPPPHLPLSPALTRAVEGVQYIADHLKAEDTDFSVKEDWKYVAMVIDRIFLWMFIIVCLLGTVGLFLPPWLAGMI
# Chain of α4β2 nAChRs (P17787 26-502): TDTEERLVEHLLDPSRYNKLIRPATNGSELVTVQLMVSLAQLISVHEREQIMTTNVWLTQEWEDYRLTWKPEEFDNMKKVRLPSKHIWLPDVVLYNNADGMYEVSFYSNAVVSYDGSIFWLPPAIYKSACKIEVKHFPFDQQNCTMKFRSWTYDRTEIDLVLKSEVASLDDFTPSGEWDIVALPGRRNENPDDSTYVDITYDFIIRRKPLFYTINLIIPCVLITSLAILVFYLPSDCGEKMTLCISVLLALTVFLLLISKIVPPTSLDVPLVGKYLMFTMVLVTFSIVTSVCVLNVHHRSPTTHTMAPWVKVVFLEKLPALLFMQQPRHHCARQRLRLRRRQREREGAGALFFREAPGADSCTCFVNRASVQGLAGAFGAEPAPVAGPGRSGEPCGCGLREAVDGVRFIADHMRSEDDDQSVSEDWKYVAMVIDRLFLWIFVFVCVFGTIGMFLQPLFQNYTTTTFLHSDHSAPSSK
compound,measurement,setting,value
"CC12CC3CC(C)(C1)CC(N)(C3)C2 [Memantine, memantine]",effect of DHβE on the neuroprotection,"[1]; 1 μM DHβE, 2 μM 4R",inhibited
same,effect of nifedipine on the neuroprotection,[1],blocked
same,effect of PD98059 on the neuroprotection,"[1]; 2 μM 4R, 1 μM nicotine",not inhibited
same,shape of the dose-response curve for neuroprotection,[1]; FIGS. 20A-B,bell-shaped
same,concentrations of dose-dependent neuroprotection,[1]; effect decreases at higher concentrations,below 3 μM
same,effect of inhibitors of PI3-kinase on the neuroprotection,[1]; inhibitors of PI3-kinase,blocked
same,Effect on the neuroprotection caused by the substance: 10 μM PD98059,[1],0
same,Effect on the neuroprotection caused by the substance: 0.1 μM Ro31 -8220,[1]; main target PKC,0
same,effect of vesamicol on the neuroprotection,[1]; vesamicol,blocked
same,IC50,α7 nAChRs,0.34 µM
same,IC50,NMDA receptors,5.1 µM
"CO[C@H]1CC=C2CCN3CCC4=C(CC(=O)OC4)[C@]23C1 [DHβE, Dihydro-Beta-erithroidine]",Akt phosphorylation,Akt Ser473,did not affect
same,Ki,α7,25 to 57 µM
same,Ki,α3β4,218 µM
"CN1CCCC1c1cccnc1 (stereo not drawn) [Nicotine, nicotine]",effect of Ro-31-8220 on the neuroprotection,"[1]; 100 nM Ro-31-8220, 2 μM 4R, 1 μM nicotine",did inhibit
same,effect of APV on the neuroprotection,"[1]; 0.4 μM APV, 2:M 4R or 1:M nicotine",only a nonsignificant decrement
same,effect of KT5720 on the neuroprotection,"[1]; 0.5 μM KT5720, 2 μM 4R, 1 μM nicotine",partially decreased
same,recovery,[1]; 1 μM during 1 hr followed by 0.5 mM NMDA,more than 80%
same,effect of KN-62 on the neuroprotection,[1]; 9 μM KN-62,did not prevent a significant neuroprotection
same,effect of nifedipine on the neuroprotection,[1],did not inhibit
same,effect of DNQX on the neuroprotection,"[1]; 50 μM DNQX, 2 μM 4R, 1 μM nicotine",recovered significantly more activity
same,effect of PD98059 on the neuroprotection,"[1]; 2 μM 4R, 1 μM nicotine",annulled
same,Effect on the neuroprotection caused by the substance: 9 μMKN-62,[1]; main target CaM kinases,0
same,Effect on the neuroprotection caused by the substance: 10 μM Nifedipine,[1]; main target L-type VGCC,0
same,Effect on the neuroprotection caused by the substance: 4 μMAPV,[1]; main target NMDA receptors,0
same,Effect on the neuroprotection caused by the substance: 50 μM Vesarnicol,[1]; main target Synaptic ACh release,0
same,effect of DHβE on the neuroprotection (reported),[2],blocked
"CC1=CC(O)CC(C)(O)C=CC(C(C)C)CCC(C)=CCC1 [4R, (1S,2E,4R,6R,7E,11E)-cembra-2,7,11-triene-4,6-diol]",IC50,α4β2 nAChRs,19.1 µM
same,IC50,α3β4 nAChRs,2.2 µM
"CCN1C[C@]2(COC(=O)c3ccccc3N3C(=O)C[C@H](C)C3=O)CC[C@H](OC)[C@@]34[C@@H]5C[C@H]6[C@H](OC)[C@@H]5[C@](O)(C[C@@H]6OC)[C@@](O)([C@@H](OC)[C@H]23)[C@@H]14 [MLA, methyllycaconitine]",Effect on the neuroprotection caused by the substance: 10 μM PD98059,[1],0
same,effect of DHβE on the neuroprotection (reported),[2],blocked
same,neuroprotection (reported),[2]; literature report,neuroprotective
Cn1cc(C2=C(c3ccc(Cl)cc3Cl)C(=O)NC2=O)c2ccccc21 [SB 216763],neuroprotection,"[1]; 100 μM applied 1 hr before or after 0.5 mM NMDA, n=21",neuroprotective only when applied after NMDA
